Type in all cases: ADME, organism-based
Data set [1] in a line: Half life in rat at 1 mg/kg, iv. Also noted: dose 1 mg/kg, route intravenous. The conditions noted are these: in vivo.
A short description of data set [2]: Clearance in rat at 1 mg/kg, iv. Details: dose 1 mg/kg, route intravenous. The conditions noted are these: in vivo.
Data set [3] is described as follows: AUC (0 to infinity) in rat at 1 mg/kg, iv. Also noted: time infinity, dose 1 mg/kg, route intravenous. The conditions noted are these: plasma.
The nature of data set [4]: AUC (0 to infinity) in rat at 5 mg/kg, po. Details: time infinity, dose 5 mg/kg, route oral. The conditions noted are these: plasma.
Data set [5] is described as follows: Oral bioavailability in rat at 5 mg/kg, po. The conditions noted are these: in vivo.

As a reminder, the half-life is the time in which the quantity being followed falls by half. The low end stands for rapid decline, the high end for slow decline. What is called clearance is a measure of how efficiently the substance is removed, as volume per time. A low value points to inefficient removal. By AUC(0-inf) is commonly meant total exposure, with the tail of the curve extrapolated. The low end stands for less exposure, the high end for more exposure. A word on the bioavailability: it is dose-corrected exposure relative to a reference, in per cent. Low readings indicate poor availability, high ones good availability. In data set [1], `CNC(=O)c1cccc(F)c1Nc1nc(Nc2ccc3c(c2)NC(=O)CCC3)ncc1Cl` gave a half-life of 42 min. This compound also showed a clearance in data set [2] of 15 mL/min/kg. The AUC(0-inf) stood at 1260 ng·h/mL in data set [3] and 592 ng·h/mL in data set [4]. In data set [5], this compound displayed a bioavailability of 8%.

These data come from ChEMBL document CHEMBL1641548, “Fused bicyclic derivatives of 2,4-diaminopyrimidine as c-Met inhibitors” (Bioorg Med Chem Lett, 2011).
